Values joined by “and” are separate entries in the source; they are usually repeats but may differ in a detail not shown here. Equal values may be shown once. Read-outs that look alike come from different tables or passages of the source.
How the values were obtained:
Format in all cases: biochemical
HGFA [1] = target: T1, HGFA (Homo sapiens, UniProt Q04756); test: Fluorescent kinetic enzyme inhibitor assay of HGFA; settings: Fluorogenic Assay, read-out: HGFA Ki
T1 construct: His6 tag (N); seven amino acid spacer and seven amino acid TEV cleavage site (N); Honey Bee melittin signal peptide (N); made in house; host or cells: High 5 insect cells (baculovirus; virus raised in Sf9)
T1 sequence (Q04756 373-655): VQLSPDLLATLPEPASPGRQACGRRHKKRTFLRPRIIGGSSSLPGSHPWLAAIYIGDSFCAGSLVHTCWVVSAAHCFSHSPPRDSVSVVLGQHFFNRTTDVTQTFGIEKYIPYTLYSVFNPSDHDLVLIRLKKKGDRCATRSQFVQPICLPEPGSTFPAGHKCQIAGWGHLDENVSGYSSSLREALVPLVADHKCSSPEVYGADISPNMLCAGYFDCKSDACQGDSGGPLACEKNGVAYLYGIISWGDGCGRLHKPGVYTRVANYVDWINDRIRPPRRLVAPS
Excerpt: Using primers identified as SEQ ID NO 1, SEQ ID NO 2, and standard PCR protocols, the nucleotide sequence encoding amino acids 373-655 of HGFA was synthesized. This PCR product was cloned into the SfoI-HindIII sites of a modified pFastBac HT baculovirus expression vector (Addgene, Cambridge, Mass.). This vector contains a six amino His tag followed by a seven amino spacer and a seven amino acid TEV cleavage site placed immediately downstream of the Honey Bee melittin signal peptide. Using a modified Bac to Bac Expression System (Life Technologies, Carlsbad, Calif.), recombinant HGFA bacmids were obtained by transforming DH10Bac Escherichia coli cells. To obtain HGFA containing baculovirus, purified bacmids were transfected into Sf9 insect cells. After 5 days in culture at 27° C., media was harvested from transfected Sf9 cells. This media was used to prepare baculovirus infected insect cells (BIICs). These BIIICs were used to infect High 5 insect cells. Four days post infection, media was harvested and recombinant protein prepared as follows. Media was chilled to 4° C. and spun at 4000×g for 20 minutes (all subsequent steps were performed at 4° C. unless noted). Clarified media was passed first through a Whatman GF/B 1 um (#1821-047, GE Healthcare Life Sciences, Piscataway, N.J.) and then a 0.22 um PES membrane (#99955, TPP Techno Plastic Products AG, Trasadingen, Switzerland) and then concentrated using a Pall Centramate tangential flow system and Centramate T-series Cassette (#OS010T12, Pall Corporation, Port Washington, N.Y.). Concentrated media was then buffer exchanged in two steps, five volumes of 50 mM Na-phosphate, 500 mM NaCl, pH 6.2, followed by five volumes of 50 mM Na-phosphate, 500 mM NaCl, pH 7.5. The concentrated and buffered exchanged insect cell media was again filtered as above and made 25 mM imidazole (#1202, Sigma-Aldrich, St. Louis, Mo.) and was mixed with nickel agarose beads (#H-321-25, Gold Biotechnology, Inc., St. Louis Mo.). After mixing this slurry for 12 hours, nickel agarose beads were allowed to settle by gravity and then loaded into a column. Beads were washed with buffer (25 mM Na-phosphate, 500 mM NaCl, 25 mM imidazole, pH 8) and the bound protein eluted using (25 mM Na-phosphate, 500 mM NaCl, 250 mM imidazole, pH 8). Using a Amicon Ultra-4 Centrifugal filters (#UFC801008, Merck Millipore, Ltd., Tullagreen, Ireland), peak protein fractions were concentrated and run over a Superdex-200 10/300 GL column (GE Healthcare Life Sciences, Piscataway, N.J.) in 10 mM Tris, 200 mM NaCl, 0.2 mM EDTA, pH 8. HGFA containing fractions were pooled, concentrated, made 50% glycerol, and stored at minus 20° C. Protein was quantitated using a modified Lowry protein assay (#500-0006, Bio-Rad Laboratories, Hercules, Calif.).
(§1) Inhibitors (11-pt serial dilutions, 0-20 μM final concentration in reaction) were serially diluted in DMSO (2% DMSO final concentration) and then mixed with either recombinant serine protease domain of HGFA [Z. Han, P. K. Harris, D. E. Jones, R. Chugani, T. Kim, M. Agarwal, W. Shen, S. A. Wildman, J. W. Janetka, Acs Med Chem Lett 2014, 5, 1219-1224], matriptase (Charles Craik, UCSF) or hepsin* (#4776-SE-010, R&D Systems, Minneapolis, Minn.) in black 384 well plates (Corning #3575. Corning, N.Y.). […] The final substrate concentrations for all assays were at the Km for the respective enzymes. Changes in fluorescence (excitation at 380 nm and emission at 460 nm) were measured at room temperature over time in a Biotek Synergy 2 plate reader (Winnoski, Vt.). Using GraphPad Prism version 6.04 software program, (GraphPad Software, San Diego, Calif., www.graphpad.com), a four parameter curve fit was used to determine the inhibitor IC50s from a plot of the mean reaction velocity versus the inhibitor concentration. The IC50 values represent the average of three separate experimental determinations.

hepsin [2] = target: T2, hepsin (Homo sapiens, UniProt P05981); test: Fluorescent kinetic enzyme inhibitor assay of hepsin; settings: Fluorogenic Assay, read-out: Hepsin Ki
T2 construct: purchased R&D Systems 4776-SE-010
T2 sequence (P05981 163-417 limits assumed): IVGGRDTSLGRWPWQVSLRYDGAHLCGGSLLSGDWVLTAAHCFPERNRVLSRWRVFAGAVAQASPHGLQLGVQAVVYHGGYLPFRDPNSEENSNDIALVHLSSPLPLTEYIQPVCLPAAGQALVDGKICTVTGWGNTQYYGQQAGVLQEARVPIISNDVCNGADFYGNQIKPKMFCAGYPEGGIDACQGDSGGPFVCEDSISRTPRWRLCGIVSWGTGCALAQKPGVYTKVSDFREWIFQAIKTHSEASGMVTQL
T2 sequence (P05981 45-162 partner limits assumed): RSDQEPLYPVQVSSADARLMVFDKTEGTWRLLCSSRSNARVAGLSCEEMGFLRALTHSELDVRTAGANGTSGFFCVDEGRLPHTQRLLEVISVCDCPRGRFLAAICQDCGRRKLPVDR
Method: as §1

matriptase = target: T3, matriptase (Homo sapiens, UniProt Q9Y5Y6); test: Fluorescent kinetic enzyme inhibitor assay of matriptase; settings: Fluorogenic Assay
T3 construct: Charles Craik, UCSF (obtained from another laboratory)
T3 sequence (Q9Y5Y6 615-855 limits assumed): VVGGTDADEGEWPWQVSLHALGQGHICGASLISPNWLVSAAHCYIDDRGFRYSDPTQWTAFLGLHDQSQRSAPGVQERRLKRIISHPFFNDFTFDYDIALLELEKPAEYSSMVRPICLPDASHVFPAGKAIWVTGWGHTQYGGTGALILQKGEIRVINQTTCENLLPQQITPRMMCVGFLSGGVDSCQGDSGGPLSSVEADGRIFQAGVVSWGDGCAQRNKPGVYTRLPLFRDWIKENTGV
Method: as §1

hepsin [3] = target: T2, hepsin; test: P4-P2 substrate specificity using HyCoSuL, hepsin; design: concentration or dose not given beside the values; settings: HyCoSuL substrate library; for P2 Position % Activity Hepsin: amino acid fixed at P2 position; for P3 Position % Activity Hepsin: amino acid fixed at P3 position; for P4 Position % Activity Hepsin: amino acid fixed at P4 position
Method: (§2) Each of the P4, P3, and P2 sublibraries were screened at the 100 μM concentration with hepsin either HGFA in a 100 μL final volume per well (99 μL of protease in buffer+1 μL of 10 mM substrates mixture). The total time of the assay was 30 minutes, however only linear portions of the progress curve (5-15 minutes) were used for velocity (RFU/s) calculations. Each sublibrary screening was repeated at least 3-times and the average value calculated from each measurement was used to create the substrate specificity matrix—the best recognized amino acid in each position was set to 100%, and other amino acids were adjusted accordingly.
Recombinant human hepsin (10 μg in 20 uL, 4776-SE-010, R&D Systems) was added to the 100 μL of activation buffer (0.1 M Tris, 0.15 M NaCl, 0.01 M CaCl2, 0.05% TRITON-X, pH=8.0) and incubated at 37° C. for 24 hours (hepsin concentration in activation buffer 2 μM). Once activated hepsin was diluted in assay buffer (0.05 M Tris, pH=9.0) to the final concentration of 4 nM and incubated at 37° C. for 15 minutes before added to a substrate.

HGFA [4] = target: T4, HGFA (Homo sapiens, UniProt Q04756); test: P4-P2 substrate specificity using HyCoSuL, HGFA; design: P3 Position % Activity HGFA / P2 Position % Activity HGFA: concentration or dose not given beside the values; P4 Position % Activity HGFA: tested at 100 µM; settings: HyCoSuL substrate library; for P2 Position % Activity HGFA: amino acid fixed at P2 position; for P3 Position % Activity HGFA: amino acid fixed at P3 position; for P4 Position % Activity HGFA: amino acid fixed at P4 position
T4 sequence (Q04756 408-655 limits assumed): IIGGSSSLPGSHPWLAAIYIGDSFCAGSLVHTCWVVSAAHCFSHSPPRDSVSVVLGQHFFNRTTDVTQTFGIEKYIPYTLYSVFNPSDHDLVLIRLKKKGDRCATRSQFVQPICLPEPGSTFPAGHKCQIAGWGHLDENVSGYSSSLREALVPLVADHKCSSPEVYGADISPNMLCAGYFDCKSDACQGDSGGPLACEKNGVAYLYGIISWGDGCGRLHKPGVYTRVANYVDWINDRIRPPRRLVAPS
T4 sequence (Q04756 373-407 partner limits assumed): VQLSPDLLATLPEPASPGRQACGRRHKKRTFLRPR
Method: as §2
HFGA enzyme was diluted in the assay buffer (0.15 M NaCl, 0.025 M Tris, 0.005 M CaCl2, pH=8.0) to the final concentration of 10-20 nM (depending of sublibrary) and incubated at 25° C. for 30 minutes before added to a substrate.

## N=C(N)NCCC[C@H](NC(=O)[C@H](Cc1ccccc1)NC(=O)[C@H](N)Cc1c[nH]c2ccccc12)C(=O)c1nc2ccc(C(=O)O)cc2s1 [Compound 1-45A1, H-dWFR-kbt-COOH]
HGFA [1]; Table 6.1
  Ki: 981 nM
Hepsin [2]; Table 6.1
  Ki: 1.41 nM

## N=C(N)c1cccc(C[C@H](NS(=O)(=O)c2ccc3ccccc3c2)C(=O)N2CCC(c3ccccc3)CC2)c1 [Compound 16, (S)-3-(2-(Naphthalene-2-sulfonamido)-3-oxo-3-(4-phenylpiperidin-1-yl)propyl)benzimidamide]
HGFA [1]; Table 9.1
  Ki: 10100 nM
matriptase; Table 9.1
  Ki: 300 nM
Hepsin [2]; Table 9.1
  Ki: 3280 nM

## N=C(N)c1cccc(C[C@H](NS(=O)(=O)c2ccc3ccccc3c2)C(=O)N2CCN(C(=O)NCc3ccccc3)CC2)c1 [Compound 17a, (S)—N-Benzyl-4-(3-(3-carbamimidoylphenyl)-2-(naphthalene-2-sulfonamido)propanoyl)piperazine-1-carboxamide]
HGFA [1]; Table 9.1, listed as FMF-1-279-003
  Ki: 14000 nM
HGFA [1]; Table 9.1
  Ki: 14000 nM
matriptase; Table 9.1
  Ki: 2060 nM and 2560 nM
Hepsin [2]; Table 9.1
  Ki: 1000 nM and 1040 nM

## Cc1ccc(S(=O)(=O)N[C@@H](Cc2cccc(C(=N)N)c2)C(=O)N2CCC[C@H](NC(=O)OCc3ccccc3)C2)cc1 [Compound 18, Benzyl (S)-1-((S)-3-(3-carbamimidoylphenyl)-2-(4-methylphenylsulfonamido)propanoyl)piperidin-3-ylcarbamate]
HGFA [1]; Table 9.2
  Ki: > 50000 nM
matriptase; Table 9.2
  Ki: 1000 nM
Hepsin [2]; Table 9.2
  Ki: 2300 nM

## Cc1ccc(S(=O)(=O)N[C@@H](Cc2cccc(C(=N)N)c2)C(=O)N2CCN(C(=O)OCc3ccccc3)CC2)cc1 [Compound 25h, (S)-Benzyl 4-(3-(3-carbamimidoylphenyl)-2-(4-methylphenylsulfonamido)propanoyl)piperazine-1-carboxylate]
HGFA [1]; Table 9.1
  Ki: > 50000 nM
Hepsin [2]; Table 9.1
  Ki: 2400 nM

## CC(C)c1cc(C(C)C)c(S(=O)(=O)N[C@@H](Cc2cccc(C(=N)N)c2)C(=O)N2CCN(C(=O)C3CCNCC3)CC2)c(C(C)C)c1 [Compound 26]
Hepsin [2]; Table 9.1
  Ki: 8140 nM and 8130 nM

## CC(C)C(=O)N1CCN(C(=O)[C@H](Cc2cccc(C(=N)N)c2)NS(=O)(=O)c2ccc3ccccc3c2)CC1 [Compound 29]
matriptase; Table 9.1
  Ki: > 20000 nM
Hepsin [2]; Table 9.1
  Ki: > 20000 nM

## CC(C)CN1CCN(C(=O)[C@H](Cc2cccc(C(=N)N)c2)NS(=O)(=O)c2ccc3ccccc3c2)CC1 [Compound 30]
matriptase; Table 9.1
  Ki: 12400 nM
Hepsin [2]; Table 9.1
  Ki: 4900 nM

## N=C(N)c1cccc(C[C@H](NS(=O)(=O)c2ccc3ccccc3c2)C(=O)N2CCN(C(=O)Cc3cccc(O)c3)CC2)c1 [Compound 31]
matriptase; Table 9.1
  Ki: 4400 nM
Hepsin [2]; Table 9.1
  Ki: 1700 nM

## N=C(N)c1cccc(C[C@H](NS(=O)(=O)c2ccc3ccccc3c2)C(=O)N2CCN(C(=O)Cc3ccc(F)cc3)CC2)c1 [Compound 32]
matriptase; Table 9.1
  Ki: 2800 nM
Hepsin [2]; Table 9.1
  Ki: 1000 nM

## N=C(N)NCCC[C@H](NC(=O)[C@H](CCC(N)=O)NC(=O)OCC1c2ccccc2-c2ccccc21)C(=O)c1nc2ccccc2s1 [Compound 7185-6, Fmoc-QR-kbt]
matriptase; Table 6.1
  Ki: 1.6 nM

## CCOC(=O)N1CCN(C(=O)[C@H](Cc2cccc(C(=N)N)c2)NS(=O)(=O)c2ccc3ccccc3c2)CC1 [FMF-1-275-004]
matriptase; Table 9.1
  Ki: 2780 nM
Hepsin [2]; Table 9.1
  Ki: 39500 nM

## D-Val
Hepsin [3]
  P2 Position % Activity Hepsin: 0.00%
  P3 Position % Activity Hepsin: 27.04%
  P4 Position % Activity Hepsin: 22.58%
HGFA [4]
  P2 Position % Activity HGFA: 0.00%
  P3 Position % Activity HGFA: 5.76%
  P4 Position % Activity HGFA: 8.25%

## L-Dab
Hepsin [3]
  P2 Position % Activity Hepsin: 13.49%
  P3 Position % Activity Hepsin: 48.55%
  P4 Position % Activity Hepsin: 47.53%
HGFA [4]
  P2 Position % Activity HGFA: 0.50%
  P3 Position % Activity HGFA: 29.40%
  P4 Position % Activity HGFA: 16.76%

## L-Pip
Hepsin [3]
  P2 Position % Activity Hepsin: 10.66%
  P3 Position % Activity Hepsin: 1.64%
  P4 Position % Activity Hepsin: 34.68%
HGFA [4]
  P2 Position % Activity HGFA: 1.75%
  P3 Position % Activity HGFA: 0.83%
  P4 Position % Activity HGFA: 9.25%

## β-Ala
Hepsin [3]
  P2 Position % Activity Hepsin: 0.00%
  P3 Position % Activity Hepsin: 22.78%
  P4 Position % Activity Hepsin: 30.74%
HGFA [4]
  P2 Position % Activity HGFA: 0.24%
  P3 Position % Activity HGFA: 15.95%
  P4 Position % Activity HGFA: 10.07%

From patent US11130780B2, “Inhibitors of growth factor activation enzymes” (Washington University, priority 2015, dated 2021)
